pIC50, pKi: −log10 of the molar value.

This note sets out measurements from ChEMBL document CHEMBL1155501, “Studies on two types of PTP1B inhibitors for the treatment of type 2 diabetes: Hologram QSAR for OBA and BBB analogues” (Bioorg Med Chem Lett, 2010).

This assay concerns the target T1, Tyrosine-protein phosphatase non-receptor type 1 (Homo sapiens, UniProt P18031).
T1 sequence (P18031 whole entry): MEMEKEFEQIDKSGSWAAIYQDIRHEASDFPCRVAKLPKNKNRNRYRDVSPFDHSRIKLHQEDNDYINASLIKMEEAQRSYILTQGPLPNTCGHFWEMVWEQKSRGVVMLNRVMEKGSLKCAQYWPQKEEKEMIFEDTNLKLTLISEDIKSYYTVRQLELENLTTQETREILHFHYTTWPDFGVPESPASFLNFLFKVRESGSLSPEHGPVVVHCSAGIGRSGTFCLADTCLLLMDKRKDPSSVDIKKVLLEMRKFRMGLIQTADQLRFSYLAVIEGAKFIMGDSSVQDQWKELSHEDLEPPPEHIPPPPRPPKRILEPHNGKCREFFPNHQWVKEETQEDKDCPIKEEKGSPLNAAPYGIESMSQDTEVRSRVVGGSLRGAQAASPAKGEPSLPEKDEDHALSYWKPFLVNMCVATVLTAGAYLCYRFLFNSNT
The assay is described as follows: Binding affinity to human recombinant PTP1B.
`O=C(O)[C@H](Oc1ccc(-c2ccc(-c3c(Cc4ccc(O)cc4O)sc4ccccc34)cc2)cc1)c1ccccc1`: the pIC50 is 6.92.

As for `O=C(O)/C=C/C(=O)Nc1cc(-c2ccc(-c3c(Cc4ccccc4)oc4ccccc34)cc2)ccc1O`, the negative logarithm of the IC50 (pIC50) is 6.34. Still for that read-out and setting: the same measure for `CCCCc1sc2ccccc2c1-c1ccc(-c2ccc(OCC(=O)O)cc2)cc1`: 5.66. For the compound `Cc1cccc(C(=O)O)c1NC(=O)C(=O)O`, the negative logarithm of the Ki (pKi) was 2.90. The same measure, in the same setting: the same measure for `Nc1cccc(-c2cc(NC(=O)C(=O)O)c(C(=O)O)s2)c1`: 5.22. Regarding `Oc1c(Br)cc(-c2ccc(-c3c(Cc4ccccc4)sc4ccccc34)cc2)cc1Br`, the pIC50 is 6.35. With `CCCCc1sc2ccccc2c1-c1ccc(-c2ccc(O)cc2)cc1`, the pIC50 is 6.16.

For `O=C(O)C(=O)Nc1sc2c(c1C(=O)O)CCS(=O)(=O)C2`, the pKi was 5.22.

As a reminder, the pIC50 is the IC50 on a negative log10 scale, so that one unit is a factor of ten. The term pKi denotes the Ki on a negative log10 scale, so that one unit is a factor of ten.
